Measurements published in the CheMixHub ionic liquid set.

Assay: xn = mol fraction of the nth substance listed

O=S(=O)([N-]S(=O)(=O)C(F)(F)F)C(F)(F)F.[Li+] + O
Details	electrical conductivity [S/m]	viscosity [mPa·s]
267.18 K, 100 kPa, x2 = 0.8271	1.02	–
272.15 K, 100 kPa, x2 = 0.8855	2.04	–
282.32 K, 100 kPa, x2 = 0.7538	0.699	–
283 K, 101 kPa, x1 = 0.2649	0.62	–
288.36 K, 100 kPa, x2 = 0.7538	0.861	–
292.1 K, 100 kPa, x1 = 0.0039	0.966	–
292.3 K, 100 kPa, x2 = 0.8065	1.98	–
293 K, 100 kPa, x1 = 0.25	–	23.6
293 K, 101 kPa, x1 = 0.2649	0.89	69.2
296.88 K, 100 kPa, x2 = 0.8271	2.71	–
298 K, 101 kPa, x1 = 0.005377	1.2	1.11
298 K, 101 kPa, x1 = 0.05933	5.79	3.11
298 K, 101 kPa, x1 = 0.112	–	5.56
298 K, 101 kPa, x1 = 0.1134	4.7	–
298 K, 101 kPa, x1 = 0.1778	2.99	–
298 K, 101 kPa, x1 = 0.2128	2.2	22.22
298 K, 101 kPa, x1 = 0.2639	0.97	–
298 K, 101 kPa, x1 = 0.2649	–	51.3
298.1 K, 101 kPa, x1 = 0.2649	1.04	55.3
298.15 K, 100 kPa, x1 = 0.112	–	5.2
298.15 K, 100 kPa, x1 = 0.1896	–	15.8
298.15 K, 100 kPa, x1 = 0.2333	–	30.7
298.15 K, 100 kPa, x1 = 0.2547	–	42.3
298.15 K, 100 kPa, x1 = 0.2741	–	54.1
301.65 K, 100 kPa, x2 = 0.8271	3.13	–
302.07 K, 100 kPa, x2 = 0.7538	1.38	–
302.07 K, 100 kPa, x2 = 0.9148	5.85	–
302.88 K, 100 kPa, x2 = 0.8495	4.06	–
303 K, 101 kPa, x1 = 0.2649	1.22	45.4
307.05 K, 100 kPa, x2 = 0.8065	2.85	–
307.24 K, 100 kPa, x2 = 0.9761	4.9	–
308.08 K, 100 kPa, x2 = 0.7538	1.61	–
308.15 K, 100 kPa, x1 = 0.112	–	4.3
308.15 K, 100 kPa, x1 = 0.1896	–	11.5
308.15 K, 100 kPa, x1 = 0.2333	–	21.5
308.15 K, 100 kPa, x1 = 0.2547	–	29
308.15 K, 100 kPa, x1 = 0.2741	–	36.1
312.24 K, 100 kPa, x2 = 0.8065	3.3	–
312.86 K, 100 kPa, x2 = 0.6988	0.916	–
313 K, 101 kPa, x1 = 0.2649	1.6	30.9
315.76 K, 100 kPa, x2 = 0.7857	2.85	–
317.41 K, 100 kPa, x2 = 0.8271	4.37	–
317.41 K, 100 kPa, x2 = 0.8495	5.49	–
318.15 K, 100 kPa, x1 = 0.112	–	3.4
318.15 K, 100 kPa, x1 = 0.1896	–	8.6
318.15 K, 100 kPa, x1 = 0.2333	–	15.8
318.15 K, 100 kPa, x1 = 0.2547	–	20.9
318.15 K, 100 kPa, x1 = 0.2741	–	25.5
318.47 K, 100 kPa, x2 = 0.6988	1.07	–
320.96 K, 100 kPa, x2 = 0.7857	3.2	–
321.15 K, 100 kPa, x2 = 0.9761	6.42	–
322.41 K, 100 kPa, x2 = 0.7538	2.29	–
323 K, 101 kPa, x1 = 0.2649	2.04	21.8
327.61 K, 100 kPa, x2 = 0.8271	5.33	–
327.8 K, 100 kPa, x2 = 0.6988	1.36	–
328.15 K, 100 kPa, x1 = 0.112	–	2.8
328.15 K, 100 kPa, x1 = 0.1896	–	6.6
328.15 K, 100 kPa, x1 = 0.2333	–	12
328.15 K, 100 kPa, x1 = 0.2547	–	15.6
328.15 K, 100 kPa, x1 = 0.2741	–	18.7
329.06 K, 100 kPa, x2 = 0.7857	3.73	–
331.74 K, 100 kPa, x2 = 0.8271	5.85	–
331.96 K, 100 kPa, x2 = 0.8065	4.85	–
332.16 K, 100 kPa, x2 = 0.8855	8.87	–
332.58 K, 100 kPa, x2 = 0.9148	10.1	–
333 K, 100 kPa, x2 = 0.7538	2.85	–
333 K, 100 kPa, x2 = 0.8495	7.06	–
333 K, 101 kPa, x1 = 0.2649	2.58	16.2
334.65 K, 100 kPa, x2 = 0.7857	4.15	–
336.52 K, 100 kPa, x2 = 0.8855	9.74	–
339.84 K, 100 kPa, x2 = 0.7857	4.6	–
341.52 K, 100 kPa, x2 = 0.8271	6.77	–
341.94 K, 100 kPa, x1 = 0.0039	2.36	–
342.13 K, 100 kPa, x2 = 0.6601	1.19	–
342.75 K, 100 kPa, x2 = 0.8065	5.73	–
343.17 K, 100 kPa, x2 = 0.7538	3.44	–
347.11 K, 100 kPa, x1 = 0.0039	2.52	–
347.33 K, 100 kPa, x2 = 0.6988	2.11	–
347.53 K, 100 kPa, x2 = 0.9761	9.34	–
347.94 K, 100 kPa, x2 = 0.8495	8.69	–
352.3 K, 100 kPa, x2 = 0.8855	11.8	–
352.92 K, 100 kPa, x2 = 0.8065	6.69	–
356.24 K, 100 kPa, x2 = 0.7857	5.78	–
357.3 K, 100 kPa, x2 = 0.8855	12.1	–
357.7 K, 100 kPa, x2 = 0.9148	13.9	–

CCCC[n+]1ccn(C)c1.C[C@H](N)C(=O)[O-] + O
viscosity [mPa·s], 100.3 kPa
Details	288.15 K	293.15 K	298.15 K	303.15 K	308.15 K	313.15 K	318.15 K	323.15 K	328.15 K
x1 = 0.0002936	1.156	1.017	0.9	0.81	0.726	0.661	0.604	0.554	0.511
x1 = 0.0003927	1.162	1.022	0.907	0.813	0.732	0.664	0.606	0.557	0.513
x1 = 0.0004989	1.167	1.027	0.911	0.817	0.735	0.666	0.608	0.559	0.515
x1 = 0.0009775	1.203	1.057	0.937	0.838	0.755	0.685	0.626	0.573	0.529
x1 = 0.002927	1.361	1.197	1.057	0.939	0.842	0.759	0.688	0.629	–
x1 = 0.004981	1.513	1.326	1.163	1.028	0.917	0.827	0.749	0.685	–
x1 = 0.007048	1.658	1.446	1.273	1.119	0.997	0.894	0.806	0.736	–
x1 = 0.009016	1.821	1.575	1.368	1.209	1.07	0.959	0.867	0.781	–
x1 = 0.01103	1.957	1.697	1.477	1.301	1.147	1.027	0.929	0.832	–
x1 = 0.01317	2.101	1.819	1.58	1.38	1.225	1.089	0.986	0.888	–
x1 = 0.01511	2.246	1.941	1.677	1.469	1.292	1.156	1.037	0.932	–
x1 = 0.01781	2.459	2.107	1.825	1.598	1.393	1.253	1.115	0.999	–
